Results as given in patent US12727600B2, “Staurosporine⋅emamectin benzoate suspending agent and preparation method and application thereof” (PLANT PROTECTION RESEARCH INSTITUTE OF GUANGDONG ACADEMY OF …, priority 2020, dated 2026).
Like-named read-outs stand apart in the source and are kept apart here.

Test system: second instar larvae of Spodoptera exigua
Assay: Indoor toxicity by Potter spray method; co-toxicity coefficient method of Sun Y. P.
Type: in vivo
Conditions: median lethal concentration
Description: The method for determining the indoor toxicity of the pesticides involved in the present invention to the second instar larvae of Spodoptera exigua is as follows:
The test method is the Potter spray method: a Potter spray tower is used to spray the vegetable leaves on both sides with 1 mL of the amount of the pesticides treating the leaf on each side, and the sedimentation is performed for 30 seconds. There are 3 replicates for each treatment for 30 larvae (2nd instar larvae of Spodoptera exigua), and a treatment with the clean water is used as the control. The petri dish after sprayed is placed in a constant-temperature incubator (temperature being 25° C., relative humidity being 85%). The death of the testing pests is investigated and recorded after treatment for 24, 48, and 72 hours. During the treatment, the petri dish is kept moist, and fresh Cantonese cabbage leaves are added timely as pest's food.
The formula (1) is used to calculate the mortality of pests, the Abbott formula is used to calculate the corrected mortality, and EXCEL is used to analyze the virulence regression results. Formula (2) is the calculation formula of Abbott. Mortality (%)=Number of dead insects/Number of testing worms before experiment*100 (1) […]

Compound	LC50 [µg/mL]	LC50 (Spodoptera exigua, mass ratio Staurosporine:Emamectin benzoate, read-out: LC50) [µg/mL]
Emamectin benzoate [0:10]	0.14	–
CN[C@@H]1C[C@H]2O[C@@](C)([C@@H]1OC)n1c3ccccc3c3c4c(c5c6ccccc6n2c5c31)C(=O)NC4 [10:0, Staurosporine]	–	40.3
